# Where two headings read alike, the source gives them in different places.
# Experiments:
# [1] = Toxicity to carps (Test Example 12); assay type: in vivo; details: carp, dechlorinated tap water, read-out: TLm48
# Protocol: (§1) The dust of the present compound (1) prepared in Formulation Example 2 was diluted with dechlorinated tap water to a predetermined concentration of active ingredient. Ten liters of the test solution was placed in a 10-liter glass vessel, and 10 killifishes (Oryzias latipes) were liberated therein. After 48 hours, the dead and alive were examined, and TLm48 (ppm) was calculated from the concentration of active ingredient.
# Toxicity to carps was tested according to the test method for toxicity to fishes described in Test Example 11, and TLm48 (ppm) values after 48 hours were obtained.
# [2] = test system: Oryzias latipes / Nephotettix cincticeps; assay: Fish safety coefficient calculated from fish toxicity and insecticidal activity (Test Example 1); details: for Safety coefficient to fishes (a)/(b): TLm48 (Oryzias latipes) divided by concentration in water at LC50 for N. cincticeps
# Protocol: In order to make more clear the low fish toxicity and the high activity to target insects, which are charcteristic of the compounds of this invention, a fish safety coefficient was calculated from the test results of fish toxicity and insecticidal activity by the following equation and shown in Table 2. [formula]
# In the case of N. cincticeps, calculation was based on a hyothetical concentration of the test compound in water obtained by assuming that a test preparation of the active ingredient content corresponding to LC50 (ppm) was sprayed over a submerged paddy field, 5 cm in depth of water, at a rate of 100 liters per 10 ares and total active ingredient was absorbed by the water.
# For example, in the case of compound (1) of this invention, the quantity of water per 10 ares of the submerged paddy field, 5 cm in depth of water, is 50 tons. If a preparation of the active ingredient content equivalent to LC50 (ppm) of the compound (1) is sprayed at a rate of 100 liters per 10 ares, the concentration of the compound (1) in the water is 0.007 ppm. The fish toxicity [TLm48 ] of the compound (1) is 6.0 ppm. The fish safety coefficient (857.1) is obtained by dividing 6.0 by 0.007.
# [3] = test system: R-type Nephotettix cincticeps; assay: Insecticidal activity test, activity to Nephotettix cincticeps (Test Example 1); assay type: in vivo
# Protocol: 2. Insecticidal activity test.
# Test emulsion preparations were prepared in the same manner as in Formulation Example 1.
# Activity to Nephotettix cinciticips
# The test insect was resistant to carbamates (hereinafter referred to as R-type). The active ingredient content of test preparation was varied in 4 levels within the range of 500 to 1 ppm. The test preparation was sprayed over 180-ml plastic cups grown with rice plant one-month old from sowing and placed on a turn table, the application rate having been 15 cc/2 cups. After air drying, the plant was covered with a wire-screen cage. A group of 15 female adults of R-type Nephotettix cincticeps was released in each cage and kept at 26° C. in an artificial climate condition. After 24 hours, the dead and alive were observed. The median lethal concentration [LC50 (ppm)] was calculated from the mortality determined by 3-repetition test.
# [4] = Fish toxicity test, median tolerance limit 48 hours (Test Example 1); assay type: in vivo, Oryzias latipes (killifish); details: in vivo; Oryzias latipes, 48 hours; read-out: Fish toxicity TLm48 (a)
# Protocol: (§2) Ten member group of Oryzias latipes (0.2-0.3 g/fish) was released in a 10-liter glass vessel containing 10 liters of a test preparation which was dissolved or suspended in "Tween 80" and diluted successively with dechlorinated tap water. After 48 hours, the dead and alive were counted to determine median tolerance limit (48 hours) [TLm48 (ppm)] value.
# [5] = Oral toxicity test (Test Example 10); details: in vivo, male mouse, corn oil
# Protocol: The present compound (1) was dissolved or suspended in a corn oil, and the resulting solution was orally administered to a male mouse (18 to 22 g) at a rate of 0.2 ml/10 g body weight. After 24 hours, the mortality was examined to obtain the median lethal dose (LD50 mg/kg).
# [6] = test system: R-type Nephotettix cincticeps; assay: Mortality by isomer mixtures on rice plant (Test Example 2); assay type: in vivo; details: 10 ppm active ingredient, 24 hours
# Excerpt: The present compound (1) and (2) were mixed in a predetermined proportion, formulated into an emulsifiable concentrate according to Formulation Example 1 and diluted with water so that the amount of active ingredient was 10 ppm.
# The test preparation was sprayed over rice plant in tillering stage planted in a 1/10,000 are Wagner pot, at a rate of 15 cc per pot. After airdrying, the plant was covered with a wire-screen cage into which were released 15 female adults of R-type Nephotettix cincticeps. The pot was kept at 26° C. in an artificial climate condition. After 24 hours, the dead and alive were observed and the mortality was obtained by 3-repetition test.
# [7] = test system: WHO strain housefly female adults (Musca domestica); assay: Topical application to housefly (Test Example 5); assay type: in vivo; details: 24 hours
# Protocol: The present compound (1) was diluted with acetone to four different concentrations.
# The acetone dilute solution was topically applied to the ventral thorax of WHO strain housefly female adults (Musca domestica), at a rate of 0.5 μl/adult by means of a microsyringe.
# The adults were then liberated in a plastic cup of 12 cm in diameter and given a 1% sugar water. After 24 hours, the dead and alive were examined. The median lethal does (LD50 μg/adult) was obtained from the mortality of 50 adults per group.
# [8] = test system: carmine mites (Tetranychus cinnabarinus); assay: Acaricidal test on rice plants, carmine mites (Test Example 8); assay type: in vivo; details: 500 ppm, after 10 days
# Protocol: The emulsifiable concentrate of the present compound (1) prepared in Formulation Example 1 was diluted with water so that the concentration of active ingredient was 500 ppm. The dilute solution was then thoroughly sprayed on rice plants (grown in a 1/10,000 are Wagner's pot) on which carmine mites (Tetranychus cinnabarinus) in all stages were made parasitic.
# [9] = test system: full grown larvae of Aedes aegypty (Culex pipiens pallens); assay: Mosquito larvae test (Test Example 7); assay type: in vivo; details: 24 hours, read-out: larvae killed
# Protocol: The emulsifiable concentrate of the present compound (1) prepared in Preparation example 1 was diluted with distilled water so that the concentration of active ingredient was 0.1 ppm. One hundred milliliters of the dilute solution was placed in a 180-ml plastic cup, and 30 full grown larvae of Aedes aegypty (Culex pipiens pallens) were liberated therein. After 24 hours, 100% of the larvae could be killed.
# [10] = test system: green rice leafhopper (Nephotettix cincticeps); assay: Model paddy field box test, green rice leafhopper (Test Example 13); assay type: in vivo; details: wettable powder, 100 ppm, 100 liter/10 are, after 48 hours
# Protocol: (§3) The wettable powder of the present compound (1) prepared in Formulation Example 3 was diluted with water so that the concentration of active ingredient was 100 ppm. Soil was placed in a plastic box [5m×5m×2m (deep)] to a level of 50 cm from the bottom, and rice plants about 50 cm high were transplanted at intervals of 50 cm. Water was then placed in the bos so that water depth was 5 cm, and 20 killifishes (Oryzias latipes) were liberated therein. Thereafter, the above dilute solution was sprayed on the box at a rate of 100 liter/10 are. The solution fell on the rice plants as well as on the water surface.
# (§4) One hour after treatment, 100 female adults of green rice leafhopper (Nephotettix cincticeps) were liberated in the box which was immediately covered with a net.
# [11] = test system: Oryzias latipes; assay: Fish toxicity test, median tolerance limit 48 hours (Test Example 1); assay type: in vivo, Oryzias latipes (killifish); details: killifish, in words
# Protocol: as §2
# [12] = test system: third instar larvae of rice stem borer (Chilo suppressalis); assay: Rice seedling dipping test, rice stem borer (Test Example 6); assay type: in vivo; details: 240 h, 10 days, read-out: larvae killed
# Protocol: The emulsifiable concentrate of the present compound (1) prepared in Formulation Example 1 was diluted with water so that the concentration of active ingredient was 500 ppm. Five rice seedlings which had elapsed 10 days after sowing were dipped in the dilute solution and air-dried. The rice seedlings and 10 third instar larvae of rice stem borer (Chilo suppressalis) were placed in a plastic cup (diameter 5.5 cm, height 3.5 cm) which was then placed in an artificial climate chamber kept at 26° C.
# [13] = test system: Laodelphax striatellus; assay: Insecticidal activity, Laodelphax striatellus (Test Example 4); assay type: in vivo; details: Laodelphax striatellus female adults, 24 hours, 26° C.
# Protocol: The emulsion preparation containing the compound (1) of this invention, described in Formulation Example 1, was diluted with water. The active ingredient content of the test prepartion was varied in 4 levels within the range of 150 to 10 ppm. The test preparation was sprayed over 180 ml plastic cups grown with rice plant and placed on a turn table the application rate having been 15 cc/2 cups. After air drying, the plant was covered with a wire-screen cage. A group of 15 female adults of Laodelphax striatellus was released in each cage and kept at 26° C. in an artificial climate condition. After 24 hours, the dead and alive were observed. The median lethal concentration [LC50 (ppm)] was calculated from the mortality determined by 3-repetition test.
# [14] = test system: green rice leafhopper (Nephotettix cincticeps); assay: Residual effect test (Test Example 9); assay type: in vivo; details: 400 ppm, 24 hours
# Protocol: The emulsifiable concentrate of the present compound (1) prepared in Formulation Example 1 was diluted with water so that the concentration of active ingredient was 400 ppm. Thereafter, 20 cc of the dilute solution was sprayed on rice plants grown in a 1/10,000 are Wagner's pot. The rice plants were air-dried and covered with a wire-screen cage, and 15 female adults of green rice leafhopper (Nephotettix cincticeps) were liberated therein. After 24 hours, the dead and alive were examined to obtain mortality. In order to examine the residual effect, the pot was then left as it was for 7 days, and the test insects were liberated in the same manner as above. After 24 hours, the mortality was examined. The experiment was carried out in a greenhouse and the number of repetitions was three.
# [15] = test system: killifishes (Oryzias latipes); assay: Model paddy field box test, killifishes (Test Example 13); assay type: in vivo; details: wettable powder, 100 ppm, 100 liter/10 are, water depth 5 cm, after 48 hours
# Protocol: as §3, §4
# [16] = Fish toxicity of dust, killifishes (Test Example 11); assay type: in vivo; details: dechlorinated tap water, dust of Formulation Example 2, Oryzias latipes, read-out: TLm48
# Protocol: as §1
# [17] = R-type (carbamate-resistant) Nephotettix cincticeps female adults, 24 hours, 26° C., read-out: LC50
SMILES,Safety coefficient to fishes (a)/(b) [2],"LC50 [3, 17] [µg/mL]",LC50 at 48 h [4] [µg/mL],LD50 at 24 h [5] [mg/kg],also measured
"CC1(C)C(C=C(Cl)Cl)C1C(=O)OC(C#N)c1cccc(Oc2ccccc2)c1 (racemic) [Reference compound (D), m-phenoxy-α-cyanobenzyl dl-cis,trans-2,2-dimethyl-3-(2,2-dichlorovinyl)-cyclopropanecarboxylate]",2.6,5,0.026,112,LC50 at 48 h [1]: ≤ 0.01 µg/mL
CNC(=O)Oc1ccc(C)c(C)c1 [(F)],17.0,–,11.9,60,"LC50 ([3]; Nephotettix cincticeps, 24 h): 350 µg/mL"
"CC(C)=CC1C(C(=O)OCc2cccc(Oc3ccccc3)c2)C1(C)C (racemic) [(B), m-phenoxybenzyl dl-cis,trans chrysanthemate]",–,–,–,–,mortality at 10 ppm [6]: 10%
"CC1(C)[C@H](C=C(Cl)Cl)[C@H]1C(=O)OC(C#N)c1cccc(Oc2ccc(Br)cc2)c1 (relative stereo) [Compound (1), m-(p-bromophenoxy)-α-cyanobenzyl dl-trans-2,2-dimethyl-3-(2,2-dichlorovinyl)cyclopropanecarboxylate]",857.1,3.5,6,> 2000,"LD50 [7]: 0.035 μg/adult; LC50 at 48 h [1]: > 10 µg/mL; degree of damage by the carmine mites [8]: the spreading of damage could be prevented; safety coefficient to fishes compared with reference compounds ([2]; in words): shows a very high value as compared with that of the reference compounds; mortality at 0.1 ppm [9]: 100%; insecticidal activity compared with reference compounds ([3]; Nephotettix cincticeps, in words): higher in insecticidal activity than the reference compounds (A), (C) and (F); green rice leafhoppers found [10]: no green rice leafhoppers were found; toxicity to killifish compared with reference compounds [11]: lower in toxicity to killifish than the reference compounds (A), (C), (D) and (E); mortality at 500 ppm [12]: 100%; LC50 [13]: 70 µg/mL; Mortality (%), effect immediately after treatment [14]: 100%; Mortality (%), effect 7 days after treatment ([14]; insects liberated 7 days after treatment): 100%; survival of killifishes [15]: all of the killifishes were alive; LC50 at 48 h [16]: > 10 µg/mL"
"CC1(C)C(C=C(Cl)Cl)C1C(=O)OC(C#N)c1cccc(Oc2ccc(F)cc2)c1 (racemic) [(E), m-(p-fluorophenoxy)-α-cyanobenzyl dl-cis,trans-2,2-dimethyl-3-(2,2-dichlorovinyl)cyclopropanecarboxylate]",0.3,5,0.003,300,–
"CC1(C)C(C=C(Cl)Cl)C1C(=O)OC(C#N)c1cccc(Oc2ccc(Br)cc2)c1 (racemic) [(A), m-(p-bromophenoxy)-α-cyanobenzyl dl-cis, trans-2,2-dimethyl-3-(2,2-dichlorovinyl)cyclopropanecarboxylate]",56.3,8,0.9,–,–
"CC1(C)C(C=C(Cl)Cl)C1C(=O)OCc1cccc(Oc2ccccc2)c1 (racemic) [(C), m-phenoxybenzyl dl-cis,trans-2,2-dimethyl-3-(2,2-dichlorovinyl)cyclopropanecarboxylate]",0.8,18,0.027,650,–

# — US4265906A, “Low mammalian toxic and/or low fish toxic insecticides and/or acaricides” (priority 1978, dated 1981)
